Laboratory results: patent US20240287080A1 (IDEAYA Biosciences Inc., priority 2021, published 2024)

Biological target: T1, Pol theta (1-899) (Homo sapiens, UniProt O75417)
T1 construct: Pol theta (1-899) (5 nM) in assay buffer
Test: Pol theta ATPase activity, NADH oxidation-coupled enzymatic assay (ATPase NADH coupling: Standard Screening: hPolQ)
Assay type: biochemical
Details: Pol theta (1-899) 5 nM, NADH oxidation-coupled ATPase assay; compounds of Table 3
Method: The ability of the compounds of Formula (I) or Table 1 to inhibit ATPase activity of Pol theta (1-899) was determined using the assay described below. Pol Theta ATPase activity was determined by measuring the rate of ATP turn over in a NADH oxidation-coupled enzymatic assay. 10-point dilution series of compounds were used in a 384 well format for the inhibition assays. Pol theta (1-899) (5 nM) in assay buffer (20 mM Tris HCl (pH 7.80), 80 mM KCl, 10 mM MgCl2, 1 mM DTT, 0.01% BSA, 0.01% Tween, 5% glycerol) was transferred to the test wells (20 μL), except the low control wells (20 μL of assay buffer was added to the low control wells). The plate was then incubated at room temperature for 15 min. An equal volume (20 μL) of 100 μM ATP, 300 nM […] (single-stranded DNA (ssDNA) containing 50 thymine bases), 300 μM NADH, 6 mM PEP, 10 U/mL lactate dehydrogenase and 20 U/mL pyruvate kinase in assay buffer was added to all the test wells. The plate was then centrifuged at 1000 rpm for 1 min. The reaction was monitored for 60 min by measuring absorbance (λ=340 nm) in a Tecan Spark multimode plate reader every minute. The high control (DMSO with enzyme) with low absorbance intensity represents no inhibition of ATPase reaction while the low control (DMSO with buffer) with high absorbance intensity represents full inhibition of ATPase activity. Slope of the reaction progress curves were used to calculate the rate of ATP hydrolysis. The rates were used to determine the percent inhibition using a four-parameter inhibition model to generate IC50, Hill slope and max inhibition.

T1 sequence (O75417 1-899): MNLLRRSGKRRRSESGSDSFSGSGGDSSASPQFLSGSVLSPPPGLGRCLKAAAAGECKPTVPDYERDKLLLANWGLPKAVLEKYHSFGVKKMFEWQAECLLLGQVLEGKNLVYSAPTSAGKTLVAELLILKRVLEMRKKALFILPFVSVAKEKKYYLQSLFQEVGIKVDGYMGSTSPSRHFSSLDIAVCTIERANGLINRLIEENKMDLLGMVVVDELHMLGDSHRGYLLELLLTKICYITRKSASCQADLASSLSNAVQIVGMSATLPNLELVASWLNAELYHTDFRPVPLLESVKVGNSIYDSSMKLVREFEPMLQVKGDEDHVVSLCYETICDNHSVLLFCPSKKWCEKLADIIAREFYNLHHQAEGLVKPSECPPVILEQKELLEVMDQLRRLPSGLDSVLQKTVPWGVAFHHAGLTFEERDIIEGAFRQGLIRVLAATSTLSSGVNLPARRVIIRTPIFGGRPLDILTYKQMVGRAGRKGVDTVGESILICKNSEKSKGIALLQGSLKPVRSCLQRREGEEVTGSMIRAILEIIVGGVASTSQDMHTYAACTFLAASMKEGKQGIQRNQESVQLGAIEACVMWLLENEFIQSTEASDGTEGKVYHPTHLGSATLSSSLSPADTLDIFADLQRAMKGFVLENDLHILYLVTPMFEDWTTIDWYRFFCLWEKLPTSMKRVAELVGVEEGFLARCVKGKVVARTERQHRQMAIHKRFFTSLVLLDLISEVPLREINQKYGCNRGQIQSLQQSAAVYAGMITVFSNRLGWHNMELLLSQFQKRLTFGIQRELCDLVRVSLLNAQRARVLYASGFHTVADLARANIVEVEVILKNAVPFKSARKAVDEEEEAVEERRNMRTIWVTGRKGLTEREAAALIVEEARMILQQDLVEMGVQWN

SMILES | IC50 [nM]
COc1cnc(Cl)c(F)c1-c1cc(C)ncc1C(=O)Nc1nnc(O[C@H]2CC[C@@H](CO)CC2)s1 [Example 245, 2′-chloro-3′-fluoro-N-(5-(((1s,4s)-4-(hydroxymethyl)cyclohexyl)oxy)-1,3,4-thiadiazol-2-yl)-5′-methoxy-6-methyl-[4,4′-bipyridine]-3-carboxamide] | ≤ 200
COc1nnc(NC(=O)c2cnc(C)cc2-c2cccc(OC(F)(F)F)c2)s1 [Example 408, N-(5-methoxy-1,3,4-thiadiazol-2-yl)-6-methyl-4-[3-(trifluoromethoxy)phenyl]pyridine-3-carboxamide] | 500 to 1000
COc1nnc(NC(=O)c2cnc(C)cc2-c2cc(Br)c([S@+](C)[O-])cc2OC)s1 (single isomer, unassigned) [Example 322] | 500 to 1000
COc1ccc(-c2cc(C)ncc2C(=O)Nc2nnc(OC)s2)c(F)c1 [Example 445, 4-(2-fluoro-4-methoxyphenyl)-N-(5-methoxy-1,3,4-thiadiazol-2-yl)-6-methylnicotinamide] | 1000 to 10000
COc1nnc(NC(=O)c2cnc(C)cc2-c2cccs2)s1 [Example 360, N-(5-methoxy-1,3,4-thiadiazol-2-yl)-6-methyl-4-(thiophen-2-yl)pyridine-3-carboxamide] | 1000 to 10000
COc1nnc(NC(=O)c2cnc(C)cc2-c2cccc3ccoc23)s1 [Example 367, 4-(1-benzofuran-7-yl)-N-(5-methoxy-1,3,4-thiadiazol-2-yl)-6-methylpyridine-3-carboxamide] | 200 to 500
COc1nnc(NC(=O)c2cnc(C)cc2-c2ccc(C)c(C)c2)s1 [Example 381, 4-(3,4-dimethylphenyl)-N-(5-methoxy-1,3,4-thiadiazol-2-yl)-6-methylpyridine-3-carboxamide] | 1000 to 10000
COc1nnc(NC(=O)c2cnc(C)cc2-c2cnc(N3CCOCC3)nc2)s1 [Example 427, N-(5-methoxy-1,3,4-thiadiazol-2-yl)-6-methyl-4-[2-(morpholin-4-yl)pyrimidin-5-yl]pyridine-3-carboxamide] | 1000 to 10000
COc1cnc(Cl)cc1-c1cc(C)ncc1C(=O)Nc1nnc(O[C@H]2CO[C@H]3[C@@H]2OC[C@H]3O)s1 [Example 237, 2′-chloro-N-(5-(((3S,3aR,6R,6aR)-6-hydroxyhexahydrofuro[3,2-b]furan-3-yl)oxy)-1,3,4-thiadiazol-2-yl)-5′-methoxy-6-methyl-[4,4′-bipyridine]-3-carboxamide] | ≤ 200
COc1nnc(NC(=O)c2cnc(C)cc2-c2cnc3ccccc3c2)s1 [Example 394, N-(5-methoxy-1,3,4-thiadiazol-2-yl)-6-methyl-4-(quinolin-3-yl)pyridine-3-carboxamide] | 1000 to 10000
COc1nnc(NC(=O)c2cc(F)c(C)cc2-c2cc(Cl)ncc2OC)s1 [Example 282, 2-(2-chloro-5-methoxypyridin-4-yl)-5-fluoro-N-(5-methoxy-1,3,4-thiadiazol-2-yl)-4-methyl benzamide] | ≤ 200
COc1nnc(NC(=O)c2cnc(C)cc2-c2ccc3c(c2)C(=O)NC3)s1 [Example 332, N-(5-methoxy-1,3,4-thiadiazol-2-yl)-6-methyl-4-(3-oxo-2,3-dihydro-1H-isoindol-5-yl)pyridine-3-carboxamide] | 1000 to 10000
COc1nnc(NC(=O)c2cnc(C)cc2-c2ccc3c(c2)NC(=O)CO3)s1 [Example 346, N-(5-methoxy-1,3,4-thiadiazol-2-yl)-6-methyl-4-(3-oxo-3,4-dihydro-2H-1,4-benzoxazin-6-yl)pyridine-3-carboxamide] | 1000 to 10000
COc1nnc(NC(=O)c2cnc(C(F)F)cc2-c2cc(Cl)ncc2OC)s1 [Example 281, 2′-chloro-6-(difluoromethyl)-5′-methoxy-N-(5-methoxy-1,3,4-thiadiazol-2-yl)-[4,4′-bipyridine]-3-carboxamide] | ≤ 200
COc1nnc(NC(=O)c2cnc(C)cc2-c2ccc3nc[nH]c3c2)s1 [Example 490, 4-(1H-1,3-benzodiazol-6-yl)-N-(5-methoxy-1,3,4-thiadiazol-2-yl)-6-methylpyridine-3-carboxamide] | 1000 to 10000
COc1nnc(NC(=O)c2cnc(C)cc2-c2cccc3nn(C)cc23)s1 [Example 489, N-(5-methoxy-1,3,4-thiadiazol-2-yl)-6-methyl-4-(2-methyl-2H-indazol-4-yl)pyridine-3-carboxamide] | 1000 to 10000
COc1nnc(NC(=O)c2cnc(C)cc2-c2cccc(F)c2C#N)s1 [Example 430, 4-(2-cyano-3-fluorophenyl)-N-(5-methoxy-1,3,4-thiadiazol-2-yl)-6-methylpyridine-3-carboxamide] | 500 to 1000
COc1nnc(NC(=O)c2cnc(C)cc2-c2cccc3cnccc23)s1 [Example 372, 4-(isoquinolin-5-yl)-N-(5-methoxy-1,3,4-thiadiazol-2-yl)-6-methylpyridine-3-carboxamide] | 200 to 500
COc1cnc(Cl)cc1-c1cc(C)ncc1C(=O)Nc1nnc(O[C@@H]2CCCN([C@H]3CCOC3)C2)s1 [Example 275, 2′-chloro-5′-methoxy-6-methyl-N-(5-(((R)-1-((S)-tetrahydrofuran-3-yl)piperidin-3-yl)oxy)-1,3,4-thiadiazol-2-yl)-[4,4′-bipyridine]-3-carboxamide] | ≤ 200

Same assay, conditions: Table 4; Pol theta (1-899) 5 nM, ATP, dT50 ssDNA

SMILES | IC50 [nM]
COc1nnc(NC(=O)c2cnc(C)cc2-c2cc(Cl)ccc2OC(F)F)s1 [Example 33, 4-(5-chloro-2-(difluoromethoxy)phenyl)-N-(5-methoxy-1,3,4-thiadiazol-2-yl)-6-methylnicotinamide] | ≤ 200
COc1nnc(NC(=O)c2cnc(C)cc2-c2c(F)cccc2OC)s1 [Example 2, 4-(2-fluoro-6-methoxyphenyl)-N-(5-methoxy-1,3,4-thiadiazol-2-yl)-6-methylpyridine-3-carboxamide] | ≤ 200
COc1nnc(NC(=O)c2cnc(CO)cc2-c2cc(Cl)ncc2OC)s1 [Example 64, 2′-chloro-6-(hydroxymethyl)-5′-methoxy-N-(5-methoxy-1,3,4-thiadiazol-2-yl)-(4,4′-bipyridine)-3-carboxamide] | ≤ 200

Same assay, conditions: Table 5; Pol theta (1-899) 5 nM, ATP, dT50 ssDNA

SMILES | IC50 [nM]
COc1cnc(Cl)cc1-c1cc(C)ncc1C(=O)Nc1nnc(O[C@H]2CCC[C@](C)(O)C2)s1 (single isomer, unassigned) [Example 181] | ≤ 200
COc1cnc(Cl)cc1-c1cc(C)ncc1C(=O)Nc1nnc(O[C@@H]2COC3(CCCC3)C2)s1 (single isomer, unassigned) [Example 229] | ≤ 200
COc1cnc(Cl)cc1-c1cc(C)ncc1C(=O)Nc1nnc(O[C@H]2C[C@H](OC)C2)s1 (single isomer, unassigned) [Example 133, 2′-chloro-5′-methoxy-N-(5-((1r,3r)-3-methoxycyclobutoxy)-1,3,4-thiadiazol-2-yl)-6-methyl-(4,4′-bipyridine)-3-carboxamide] | ≤ 200
COc1cnc(Cl)c(F)c1-c1cc(C)ncc1C(=O)Nc1nnc(O[C@@H]2CC[C@@H](O)C2)s1 (single isomer, unassigned) [Example 198] | ≤ 200
COc1cnc(C)c(F)c1-c1cc(C)ncc1C(=O)Nc1nnc(O[C@H]2CC[C@H](O)CC2)s1 [Example 202, 3′-fluoro-N-(5-(((1r,4r)-4-hydroxycyclohexyl)oxy)-1,3,4-thiadiazol-2-yl)-5′-methoxy-2′,6-dimethyl-(4,4′-bipyridine)-3-carboxamide] | ≤ 200
COc1cnc(Cl)cc1-c1cc(C)ncc1C(=O)Nc1nnc(O[C@H]2CO[C@@H](C)C2)s1 (single isomer, unassigned) [Example 191] | ≤ 200
COc1nnc(NC(=O)c2cnc(C)cc2-c2cccc(Cl)c2)s1 [Example 102, 4-(3-chlorophenyl)-N-(5-methoxy-1,3,4-thiadiazol-2-yl)-6-methylnicotinamide] | 200 to 500
COc1cnc(Cl)c(F)c1-c1cc(C)ncc1C(=O)Nc1nnc(O[C@H]2CC[C@@](C)(O)CC2)s1 (single isomer, unassigned) [Example 171, 2′-chloro-3′-fluoro-N-(5-(((1s,4s)-4-hydroxy-4-methylcyclohexyl)oxy)-1,3,4-thiadiazol-2-yl)-5′-methoxy-6-methyl-(4,4′-bipyridine)-3-carboxamide] | ≤ 200

Same assay, conditions: Table 5; values given as bound; Pol theta (1-899) 5 nM, ATP, dT50 ssDNA

SMILES | IC50 [nM]
COc1nnc(NC(=O)c2cn(-c3cc(Cl)ncc3OC)nn2)s1 [Example 234, 1-(2-chloro-5-methoxypyridin-4-yl)-N-(5-methoxy-1,3,4-thiadiazol-2-yl)-1H-1,2,3-triazole-4-carboxamide] | > 10000
COc1nnc(NC(=O)c2nn(C)cc2-c2cc(Cl)ncc2OC)s1 [Example 107, 4-(2-chloro-5-methoxypyridin-4-yl)-N-(5-methoxy-1,3,4-thiadiazol-2-yl)-1-methyl-1H-pyrazole-3-carboxamide] | > 10000
COc1nnc(NC(=O)c2cnc(C)cc2-c2cccn3ncnc23)s1 [Example 123, 4-((1,2,4)triazolo(1,5-a)pyridin-8-yl)-N-(5-methoxy-1,3,4-thiadiazol-2-yl)-6-methylnicotinamide] | > 10000
